According to the NIST ThermoML archive (doi:10.1016/j.jct.2015.04.006):
Numbers after ± are expanded uncertainties.

What was measured:
[1] = mn = molality of the nth substance listed, in mol/kg; settings: 100 kPa, Liquid, m2 = 0; for speed of sound: Frequency=3 MHz, Sing-around technique in a fixed-path interferometer; for mass density: Vibrating tube method
[2] = 100 kPa, Liquid; for speed of sound: Frequency=3 MHz, Sing-around technique in a fixed-path interferometer; for mass density: Vibrating tube method

Row | Compound | speed of sound ([1]; 298.15 K) [m/s] | mass density ([1]; 298.15 K) [kg/m3] | speed of sound ([1]; 303.15 K) [m/s] | mass density ([1]; 303.15 K) [kg/m3] | speed of sound ([1]; 308.15 K) [m/s] | mass density ([1]; 308.15 K) [kg/m3] | speed of sound ([1]; 313.15 K) [m/s] | mass density ([1]; 313.15 K) [kg/m3] | speed of sound ([1]; 318.15 K) [m/s] | mass density ([1]; 318.15 K) [kg/m3] | speed of sound ([2]; 298.15 K) [m/s] | mass density ([2]; 298.15 K) [kg/m3] | speed of sound ([2]; 303.15 K) [m/s] | mass density ([2]; 303.15 K) [kg/m3] | speed of sound ([2]; 308.15 K) [m/s] | mass density ([2]; 308.15 K) [kg/m3] | speed of sound ([2]; 313.15 K) [m/s] | mass density ([2]; 313.15 K) [kg/m3] | speed of sound ([2]; 318.15 K) [m/s] | mass density ([2]; 318.15 K) [kg/m3]
1 | C[S+](C)[O-] [dimethyl sulfoxide] + CC[N+]1(C)CCOCC1.O=S(=O)([N-]S(=O)(=O)C(F)(F)F)C(F)(F)F | 1484.6 ± 1.2 | 1095.28 ± 0.26 | 1467.7 ± 1.2 | 1090.26 ± 0.26 | 1450.8 ± 1.2 | 1085.24 ± 0.26 | 1434.1 ± 1.2 | 1080.22 ± 0.26 | 1417.5 ± 1.2 | 1075.21 ± 0.26 |  |  |  |  |  |  |  |  |  | 
2 | C[S+](C)[O-] [dimethyl sulfoxide] |  |  |  |  |  |  |  |  |  |  | 1484.6 ± 1.2 | 1095.28 ± 0.21 | 1467.7 ± 1.2 | 1090.26 ± 0.26 | 1450.8 ± 1.2 | 1085.24 ± 0.24 | 1434.1 ± 1.2 | 1080.22 ± 0.24 | 1417.5 ± 1.2 | 1075.21 ± 0.26
3 | C[S+](C)[O-] [dimethyl sulfoxide] + CCCC[N+]1(C)CCOCC1.O=S(=O)([N-]S(=O)(=O)C(F)(F)F)C(F)(F)F | 1484.6 ± 1.2 | 1095.28 ± 0.24 | 1467.7 ± 1.2 | 1090.26 ± 0.24 | 1450.8 ± 1.2 | 1085.24 ± 0.24 | 1434.1 ± 1.2 | 1080.22 ± 0.24 | 1417.5 ± 1.2 | 1075.21 ± 0.24 |  |  |  |  |  |  |  |  |  | 
4 | C[S+](C)[O-] [dimethyl sulfoxide] + CCCCCCCC[N+]1(C)CCOCC1.O=S(=O)([N-]S(=O)(=O)C(F)(F)F)C(F)(F)F | 1484.6 ± 1.2 | 1095.28 ± 0.21 | 1467.7 ± 1.2 | 1090.26 ± 0.21 | 1450.8 ± 1.2 | 1085.24 ± 0.21 | 1434.1 ± 1.2 | 1080.22 ± 0.21 | 1417.5 ± 1.2 | 1075.21 ± 0.21 |  |  |  |  |  |  |  |  |  | 
